Results reported in ChEMBL document CHEMBL3112426, “Discovery of a new binding site on human choline kinase α1: design, synthesis, crystallographic studies, and biological evaluation of asymmetrical bispyridinium derivatives” (J Med Chem, 2014).
Activity calls are given as the source filed them. No cut-off for these calls is given here.

Assays:
HeLa [1] = assay: Antiproliferative activity against human HeLa cells after 48 hrs by MTT assay; assay type: functional, cell-based
[2] = Inhibition of choline kinase in human HepG2 cells assessed as incorporation of [14C] from [methyl-14C]choline into phosphocholine after 20 mins by liquid scintillation counting analysis; assay type: cell-based
HeLa [3] = assay: Cell cycle arrest in human HeLa cells assessed as accumulation at G2/M phase at 10 uM after 24 hrs by FACS flow cytometric analysis (reference value: 3.9 +/- 0.10%); assay type: functional
HeLa [4] = assay: Cell cycle arrest in human HeLa cells assessed as accumulation at G0/G1 phase at 10 uM after 24 hrs by FACS flow cytometric analysis (reference value: 69.9 +/- 2.41%); assay type: functional
HeLa [5] = assay: Induction of apoptosis in human HeLa cells at 10 uM after 24 hrs by annexin V-FITC/propidium iodide staining-based FACS flow cytometric analysis; assay type: functional, cell-based
HeLa [6] = assay: Cell cycle arrest in human HeLa cells assessed as accumulation at S phase at 10 uM after 24 hrs by FACS flow cytometric analysis (reference value: 25 +/- 2.53%); assay type: functional
HeLa [7] = assay: Induction of apoptosis in human HeLa cells assessed as upregulation of caspase-3 protein expression after 12 to 48 hrs by Western blot analysis; assay type: functional, cell-based
Homo sapiens = species: Homo sapiens; assay: Selectivity ratio of Kd for human CK-beta to Kd for human CK-alpha1
[8] = target: Choline/ethanolamine kinase (Homo sapiens, UniProt Q9Y259); assay: Binding affinity to human CK-beta by tryptophan fluorescence spectroscopic analysis
Chain of Choline/ethanolamine kinase (Q9Y259 whole entry): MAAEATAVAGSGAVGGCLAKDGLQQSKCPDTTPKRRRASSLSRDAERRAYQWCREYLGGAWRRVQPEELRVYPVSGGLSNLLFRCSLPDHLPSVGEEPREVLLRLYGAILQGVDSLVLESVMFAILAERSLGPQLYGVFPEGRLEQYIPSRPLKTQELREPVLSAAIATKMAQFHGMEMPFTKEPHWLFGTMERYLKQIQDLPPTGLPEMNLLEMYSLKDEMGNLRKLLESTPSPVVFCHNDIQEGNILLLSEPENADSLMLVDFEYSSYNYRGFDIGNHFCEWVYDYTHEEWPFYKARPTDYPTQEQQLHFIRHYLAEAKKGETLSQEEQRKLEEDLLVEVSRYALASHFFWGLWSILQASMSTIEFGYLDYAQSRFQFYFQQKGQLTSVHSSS

HeLa [9] = assay: Induction of apoptosis in human HeLa cells at 10 uM after 24 hrs by annexin V-FITC/propidium iodide staining-based FACS flow cytometric analysis (reference value: 14.8%); assay type: functional
Choline kinase alpha = Choline kinase alpha (Homo sapiens, UniProt P35790); assay: Binding affinity to human CK-alpha1 by tryptophan fluorescence spectroscopic analysis
Chain of Choline kinase alpha (P35790 whole entry): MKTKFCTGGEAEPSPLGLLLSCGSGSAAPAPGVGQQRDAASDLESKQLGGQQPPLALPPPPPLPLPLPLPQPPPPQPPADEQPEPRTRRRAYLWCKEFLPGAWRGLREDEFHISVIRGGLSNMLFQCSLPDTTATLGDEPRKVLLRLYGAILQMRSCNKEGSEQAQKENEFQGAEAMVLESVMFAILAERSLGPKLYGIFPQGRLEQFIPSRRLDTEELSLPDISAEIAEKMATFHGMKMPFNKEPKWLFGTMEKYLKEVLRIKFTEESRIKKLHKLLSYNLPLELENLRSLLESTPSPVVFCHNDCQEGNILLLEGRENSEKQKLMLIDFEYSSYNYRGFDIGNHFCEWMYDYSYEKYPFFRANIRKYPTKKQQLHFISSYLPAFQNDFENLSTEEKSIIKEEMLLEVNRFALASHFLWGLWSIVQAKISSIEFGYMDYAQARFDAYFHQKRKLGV

Compound	IC50 (HeLa [1])	IC50 [2] [µM]	Selectivity ratio (Homo sapiens)	Kd [8] [µM]	Kd (Choline kinase alpha) [µM]	Activity (HeLa [3]) [%]	Activity (HeLa [4]) [%]	Activity (HeLa [5])	Activity (HeLa [6]) [%]	Activity (HeLa [7])	Activity (HeLa [9]) [%]
CN(C)c1cc[n+](Cc2ccc(C[n+]3ccc(N4CCCC4)cc3)cc2)cc1	15.9 µM	8	–	–	–	–	–	–	–	–	–
CC(=O)O[C@H]1C(=O)[C@@]2(C)[C@H]([C@H](OC(=O)c3ccccc3)[C@]3(O)C[C@H](OC(=O)[C@H](O)[C@@H](NC(=O)c4ccccc4)c4ccccc4)C(C)=C1C3(C)C)[C@]1(OC(C)=O)CO[C@@H]1C[C@@H]2O [PACLITAXEL]	8 ng/mL	–	–	–	–	–	–	–	–	Dose-dependent effect	–
CN(C)c1cc[n+](Cc2ccc(CCc3ccc(C[n+]4ccc(N(C)c5ccc(Cl)cc5)cc4)cc3)cc2)cc1.[Br-].[Br-]	1.3 µM	0.7	–	–	–	1.8	83.3	Active	14.9	–	–
CN(C)c1cc[n+](Cc2ccc(CCCCc3ccc(C[n+]4ccc(N(C)c5ccc(Cl)cc5)cc4)cc3)cc2)cc1.[Br-].[Br-]	1.9 µM	1.2	200	22	–	0.9	85.9	Active	12.8	Dose-dependent effect	55.6
CN(C)c1cc[n+](Cc2ccc(C[n+]3ccc(N(C)c4ccc(Cl)cc4)cc3)cc2)cc1	24.6 µM	0.9	–	–	–	–	–	–	–	–	–
CN(C)c1cc[n+](Cc2ccc(-c3ccc(C[n+]4ccc(N5CCCC5)cc4)cc3)cc2)cc1.[Br-].[Br-]	3.7 µM	0.8	–	–	–	2.7	72.8	Active	24.5	–	–
CN(C)c1cc[n+](Cc2ccc(-c3ccc(C[n+]4ccc(N(C)c5ccc(Cl)cc5)cc4)cc3)cc2)cc1	11.7 µM	1.5	–	–	0.62	–	–	–	–	–	–
CN(c1ccc(Cl)cc1)c1cc[n+](Cc2ccc(C[n+]3ccc(N4CCCC4)cc3)cc2)cc1	48.1 µM	0.6	–	–	–	–	–	–	–	–	–
CN(C)c1cc[n+](Cc2ccc(CCc3ccc(C[n+]4ccc(N5CCCC5)cc4)cc3)cc2)cc1.[Br-].[Br-]	8.6 µM	1.2	–	–	0.4	2.6	72.5	Active	24.9	–	–

Further lines, with some results ahead:

IC50 (HeLa [1])	IC50 [2] [µM]	Selectivity ratio (Homo sapiens)	Kd [8] [µM]	Kd (Choline kinase alpha) [µM]	Compound	Activity (HeLa [3]) [%]	Activity (HeLa [4]) [%]	Activity (HeLa [5])	Activity (HeLa [6]) [%]	Activity (HeLa [7])	Activity (HeLa [9]) [%]
2.1 µM	0.9	–	–	–	CN(C)c1cc[n+](Cc2ccc(CCCCc3ccc(C[n+]4ccc(N5CCCC5)cc4)cc3)cc2)cc1.[Br-].[Br-]	2.8	77.8	Active	19.2	–	–
9.4 µM	2.5	–	–	–	CN(c1ccc(Cl)cc1)c1cc[n+](Cc2ccc(CCc3ccc(C[n+]4ccc(N5CCCC5)cc4)cc3)cc2)cc1.[Br-].[Br-]	2.2	77	Active	20.8	–	–
2.1 µM	1.5	–	–	–	CN(c1ccc(Cl)cc1)c1cc[n+](Cc2ccc(CCCCc3ccc(C[n+]4ccc(N5CCCC5)cc4)cc3)cc2)cc1.[Br-].[Br-]	1.3	83.3	Active	15.4	–	–
4.1 µM	2.2	–	–	–	CN(c1ccc(Cl)cc1)c1cc[n+](Cc2ccc(-c3ccc(C[n+]4ccc(N5CCCC5)cc4)cc3)cc2)cc1.[Br-].[Br-]	3.1	73.1	Active	23.8	–	–
